In the NIST ThermoML archive (doi:10.1021/je200856f):
Numbers after ± are expanded uncertainties.

Assay: mn = molality of the nth substance listed, in mol/kg
Conditions: 101 kPa, Liquid; for mass density: Vibrating tube method; for electrical conductivity: Wheatstone bridge equipment

C[N+](C)(C)CCO.[Cl-] [choline chloride] + O
Conditions	electrical conductivity [S/m]	mass density [kg/m3]	viscosity [mPa·s]
278.15 K, m1 = 0.0293	–	–	1.527 ± 0.048
278.15 K, m1 = 0.054	–	1000.97 ± 0.23	–
278.15 K, m1 = 0.058	–	–	1.551 ± 0.049
278.15 K, m1 = 0.1087	–	1001.95 ± 0.24	–
278.15 K, m1 = 0.1113	–	–	1.515 ± 0.048
278.15 K, m1 = 0.2495	–	–	1.577 ± 0.05
278.15 K, m1 = 0.2554	–	1004.5 ± 0.25	–
278.15 K, m1 = 0.3505	–	–	1.601 ± 0.051
278.15 K, m1 = 0.4956	–	–	1.631 ± 0.052
278.15 K, m1 = 0.5004	–	1008.71 ± 0.27	–
278.15 K, m1 = 0.6473	–	–	1.695 ± 0.054
278.15 K, m1 = 0.6512	–	1011.01 ± 0.28	–
278.15 K, m1 = 0.7484	–	1012.68 ± 0.28	–
278.15 K, m1 = 0.7512	–	–	1.741 ± 0.055
278.15 K, m1 = 0.903	–	–	1.762 ± 0.056
278.15 K, m1 = 1.005	–	–	1.791 ± 0.057
278.15 K, m1 = 1.203	–	1019.28 ± 0.32	1.862 ± 0.059
278.15 K, m1 = 1.504	–	1022.75 ± 0.33	–
278.15 K, m1 = 1.506	–	–	1.936 ± 0.061
278.15 K, m1 = 1.99	–	–	2.077 ± 0.066
278.15 K, m1 = 1.992	–	1028.85 ± 0.37	–
288.15 K, m1 = 0.0293	–	–	1.151 ± 0.036
288.15 K, m1 = 0.054	–	1000.03 ± 0.23	–
288.15 K, m1 = 0.058	–	–	1.17 ± 0.037
288.15 K, m1 = 0.1087	–	1000.95 ± 0.23	–
288.15 K, m1 = 0.1113	–	–	1.164 ± 0.037
288.15 K, m1 = 0.2495	–	–	1.192 ± 0.038
288.15 K, m1 = 0.2554	–	1003.33 ± 0.25	–
288.15 K, m1 = 0.3505	–	–	1.211 ± 0.038
288.15 K, m1 = 0.4956	–	–	1.237 ± 0.039
288.15 K, m1 = 0.5004	–	1007.27 ± 0.26	–
288.15 K, m1 = 0.6473	–	–	1.287 ± 0.041
288.15 K, m1 = 0.6512	–	1009.43 ± 0.27	–
288.15 K, m1 = 0.7484	–	1011 ± 0.28	–
288.15 K, m1 = 0.7512	–	–	1.323 ± 0.042
288.15 K, m1 = 0.903	–	–	1.342 ± 0.043
288.15 K, m1 = 1.005	–	–	1.364 ± 0.043
288.15 K, m1 = 1.203	–	1017.23 ± 0.31	1.417 ± 0.045
288.15 K, m1 = 1.504	–	1020.5 ± 0.33	–
288.15 K, m1 = 1.506	–	–	1.476 ± 0.047
288.15 K, m1 = 1.99	–	–	1.587 ± 0.05
288.15 K, m1 = 1.992	–	1026.31 ± 0.36	–
298.15 K, m1 = 0.0272	0.279 ± 0.003	–	–
298.15 K, m1 = 0.0293	–	–	0.875 ± 0.028
298.15 K, m1 = 0.05	0.492 ± 0.005	–	–
298.15 K, m1 = 0.054	–	997.931 ± 0.23	–
298.15 K, m1 = 0.058	–	–	0.888 ± 0.028
298.15 K, m1 = 0.1	0.919 ± 0.01	–	–
298.15 K, m1 = 0.1087	–	998.81 ± 0.23	–
298.15 K, m1 = 0.1113	–	–	0.903 ± 0.029
298.15 K, m1 = 0.2495	–	–	0.908 ± 0.029
298.15 K, m1 = 0.25	2.03 ± 0.02	–	–
298.15 K, m1 = 0.2554	–	1001.09 ± 0.24	–
298.15 K, m1 = 0.35	2.67 ± 0.03	–	–
298.15 K, m1 = 0.3505	–	–	0.928 ± 0.029
298.15 K, m1 = 0.4956	–	–	0.95 ± 0.03
298.15 K, m1 = 0.5	3.55 ± 0.04	–	–
298.15 K, m1 = 0.5004	–	1004.84 ± 0.26	–
298.15 K, m1 = 0.6473	–	–	0.984 ± 0.031
298.15 K, m1 = 0.65	4.37 ± 0.05	–	–
298.15 K, m1 = 0.6512	–	1006.92 ± 0.27	–
298.15 K, m1 = 0.7484	–	1008.42 ± 0.28	–
298.15 K, m1 = 0.75	4.79 ± 0.05	–	–
298.15 K, m1 = 0.7512	–	–	1.009 ± 0.032
298.15 K, m1 = 0.9	5.44 ± 0.06	–	–
298.15 K, m1 = 0.903	–	–	1.023 ± 0.033
298.15 K, m1 = 1.005	–	–	1.043 ± 0.033
298.15 K, m1 = 1.203	–	1014.4 ± 0.31	1.082 ± 0.034
298.15 K, m1 = 1.205	6.54 ± 0.07	–	–
298.15 K, m1 = 1.504	–	1017.56 ± 0.33	–
298.15 K, m1 = 1.505	7.43 ± 0.08	–	–
298.15 K, m1 = 1.506	–	–	1.127 ± 0.036
298.15 K, m1 = 1.99	–	–	1.234 ± 0.039
298.15 K, m1 = 1.992	–	1023.16 ± 0.36	–
298.15 K, m1 = 1.994	8.53 ± 0.09	–	–
308.15 K, m1 = 0.0293	–	–	0.715 ± 0.023
308.15 K, m1 = 0.054	–	994.893 ± 0.23	–
308.15 K, m1 = 0.058	–	–	0.724 ± 0.023
308.15 K, m1 = 0.1087	–	995.745 ± 0.23	–
308.15 K, m1 = 0.1113	–	–	0.732 ± 0.023
308.15 K, m1 = 0.2495	–	–	0.746 ± 0.024
308.15 K, m1 = 0.2554	–	997.961 ± 0.24	–
308.15 K, m1 = 0.3505	–	–	0.757 ± 0.024
308.15 K, m1 = 0.4956	–	–	0.774 ± 0.025
308.15 K, m1 = 0.5004	–	1001.61 ± 0.26	–
308.15 K, m1 = 0.6473	–	–	0.811 ± 0.026
308.15 K, m1 = 0.6512	–	1003.63 ± 0.27	–
308.15 K, m1 = 0.7484	–	1005.09 ± 0.28	–
308.15 K, m1 = 0.7512	–	–	0.826 ± 0.026
308.15 K, m1 = 0.903	–	–	0.835 ± 0.027
308.15 K, m1 = 1.005	–	–	0.854 ± 0.027
308.15 K, m1 = 1.203	–	1010.92 ± 0.31	0.884 ± 0.028
308.15 K, m1 = 1.504	–	1014 ± 0.32	–
308.15 K, m1 = 1.506	–	–	0.921 ± 0.029
308.15 K, m1 = 1.99	–	–	1.007 ± 0.032
308.15 K, m1 = 1.992	–	1019.47 ± 0.35	–
318.15 K, m1 = 0.0293	–	–	0.633 ± 0.02
318.15 K, m1 = 0.054	–	991.063 ± 0.23	–
318.15 K, m1 = 0.058	–	–	0.61 ± 0.019
318.15 K, m1 = 0.1087	–	991.902 ± 0.23	–
318.15 K, m1 = 0.1113	–	–	0.623 ± 0.02
318.15 K, m1 = 0.2495	–	–	0.638 ± 0.02
318.15 K, m1 = 0.2554	–	994.085 ± 0.24	–
318.15 K, m1 = 0.3505	–	–	0.646 ± 0.021
318.15 K, m1 = 0.4956	–	–	0.656 ± 0.021
318.15 K, m1 = 0.5004	–	997.683 ± 0.26	–
318.15 K, m1 = 0.6473	–	–	0.694 ± 0.022
318.15 K, m1 = 0.6512	–	999.672 ± 0.27	–
318.15 K, m1 = 0.7484	–	1001.11 ± 0.27	–
318.15 K, m1 = 0.7512	–	–	0.69 ± 0.022
318.15 K, m1 = 0.903	–	–	0.702 ± 0.022
318.15 K, m1 = 1.005	–	–	0.721 ± 0.023
318.15 K, m1 = 1.203	–	1006.86 ± 0.3	0.747 ± 0.024
318.15 K, m1 = 1.504	–	1009.9 ± 0.32	–
318.15 K, m1 = 1.506	–	–	0.776 ± 0.025
318.15 K, m1 = 1.99	–	–	0.843 ± 0.027
318.15 K, m1 = 1.992	–	1015.31 ± 0.35	–
